According to ChEMBL document CHEMBL1144588, “Synthesis and SAR of 3,5-diamino-piperidine derivatives: novel antibacterial translation inhibitors as aminoglycoside mimetics” (Bioorg Med Chem Lett, 2007):
Values after ≈ are worked out from the molar mass of the structure shown.

Tests used:
Staphylococcus aureus = experiment: Antibacterial activity against Staphylococcus aureus ATCC 25923; format: functional
Escherichia coli = experiment: Inhibition of protein synthesis in Escherichia coli by coupled transcription-translation assay; format: functional, organism-based
Pseudomonas aeruginosa = experiment: Antimicrobial activity against Pseudomonas aeruginosa; format: functional

| MIC (Staphylococcus aureus) [µg/mL] | IC50 (Escherichia coli) [µM] | MIC90 (Pseudomonas aeruginosa) [µg/mL] | SMILES |
| --- | --- | --- | --- |
| 16 (≈ 24.2 µM) | 36 | – | Cc1ccc(S(=O)(=O)N(Cc2ccccc2)c2ccc(Nc3nc(N4C[C@H](N)C[C@H](N)C4)nc(N4C[C@@H](N)[C@@H](N)C4)n3)cc2O)cc1 |
| 8 (≈ 11.9 µM) | 3 | – | Cc1ccc(S(=O)(=O)N(Cc2ccccc2)c2ccc(Nc3nc(N4C[C@H](N)C[C@H](N)C4)nc(N4C[C@H](N)C[C@H](N)C4)n3)cc2O)cc1 |
| 16 (≈ 28.1 µM) | 310 | – | N[C@@H]1C[C@H](N)CN(c2nc(Nc3ccc(NC(=O)c4ccc5ccccc5c4O)cc3)nc(N3CCCC(O)C3)n2)C1 (some centres undefined) |
| 32 (≈ 56.3 µM) | 12 | – | NC[C@@H]1C[C@H](N)CN1c1nc(Nc2ccc(NC(=O)c3ccc(Cl)cc3)c(O)c2)nc(N2C[C@H](N)C[C@H](N)C2)n1 |
| 32 (≈ 57.8 µM) | 40 | – | N[C@@H]1C[C@H](N)CN(c2nc(Nc3ccc(NC(=O)c4ccc(Cl)cc4)c(O)c3)nc(N3CCCC(O)C3)n2)C1 (some centres undefined) |
| – | 14 | – | NC1CN(c2nc(Nc3ccc(NC(=O)c4ccc(Cl)cc4)c(O)c3)nc(N3C[C@H](N)C[C@H](N)C3)n2)C1 |
| – | 100 | – | N[C@@H]1C[C@H](O)CN(c2nc(Nc3ccc(NC(=O)c4ccc5ccccc5c4O)cc3)nc(N3C[C@@H](N)C[C@@H](O)C3)n2)C1 |
| – | 16 | – | N[C@@H]1C[C@H](N)CN(c2ncnc(Nc3ccc(NC(=O)c4ccc5ccccc5c4O)cc3)n2)C1 |
| 8 (≈ 13.7 µM) | 19 | – | N[C@@H]1C[C@H](N)CN(c2nc(Nc3ccc(NC(=O)c4ccc5ccccc5c4O)cc3)nc(N3C[C@@H](N)C[C@H]3CO)n2)C1 |
| 2 (≈ 3.43 µM) | 10 | – | NC[C@@H]1C[C@H](N)CN1c1nc(Nc2ccc(NC(=O)c3ccc4ccccc4c3O)cc2)nc(N2C[C@H](N)C[C@H](N)C2)n1 |
| 32 (≈ 54.9 µM) | 31 | – | NC[C@@H]1CN(c2nc(Nc3ccc(NC(=O)c4ccc(Cl)cc4)c(O)c3)nc(N3C[C@H](N)C[C@H](N)C3)n2)CC[C@@H]1O |
| – | > 1000 | – | NC(=O)C1CCN(c2nc(Nc3ccc(NC(=O)c4ccc(Cl)cc4)c(O)c3)nc(N3C[C@H](N)C[C@H](N)C3)n2)CC1 |
| – | 7 | – | NCCN(CCN)c1nc(Nc2ccc(NC(=O)c3ccc4ccccc4c3O)cc2)nc(N(CCN)CCN)n1 |
| 16 (≈ 26.8 µM) | 11 | – | NC[C@@H]1C[C@H](CN)CN(c2nc(Nc3ccc(NC(=O)c4ccc(Cl)cc4)c(O)c3)nc(N3C[C@H](N)C[C@H](N)C3)n2)C1 |
| 32 (≈ 57.5 µM) | 18 | – | NCCN(CCN)c1nc(Nc2ccc(NC(=O)c3ccc(Cl)cc3)c(O)c2)nc(N2C[C@H](N)C[C@H](N)C2)n1 |
| 64 (≈ 112 µM) | 40 | – | N[C@@H]1C[C@H](N)CN(c2nc(Nc3ccc(NC(=O)c4ccc(Cl)cc4)c(O)c3)nc(N3C[C@@H](N)C[C@@H](O)C3)n2)C1 |

More lines, now with the values behind:

| SMILES | MIC (Staphylococcus aureus) [µg/mL] | IC50 (Escherichia coli) [µM] | MIC90 (Pseudomonas aeruginosa) [µg/mL] |
| --- | --- | --- | --- |
| Cc1ccc(S(=O)(=O)N(Cc2ccccc2)c2ccc(Nc3nc(N4C[C@H](N)C[C@H](N)C4)nc(N4C[C@@H](N)C[C@H]4CO)n3)cc2O)cc1 | 8 (≈ 11.9 µM) | 15 | – |
| Cc1ccc(S(=O)(=O)N(Cc2ccccc2)c2ccc(Nc3nc(N4C[C@H](N)C[C@H](N)C4)nc(N4C[C@@H](N)C[C@H]4CN)n3)cc2O)cc1 | 2 (≈ 2.97 µM) | 13 | – |
| O=C(N[C@H](CO)[C@H](O)c1ccc([N+](=O)[O-])cc1)C(Cl)Cl [CHLORAMPHENICOL] | 8 (≈ 24.8 µM) | – | – |
| N[C@@H]1C[C@H](N)CN(c2nc(Nc3ccc(NC(=O)c4ccc(Cl)cc4)c(O)c3)nc(N3C[C@@H](O)[C@@H](O)C3)n2)C1 | 64 (≈ 115 µM) | 77 | – |
| NC[C@@H]1C[C@H](CN)CN(c2nc(Nc3ccc(NC(=O)c4ccc5ccccc5c4O)cc3)nc(N3C[C@H](N)C[C@H](N)C3)n2)C1 | 4 (≈ 6.54 µM) | 8 | – |
| CN[C@@H]1C[C@H](NC)CN(c2nc(Nc3ccc(Cl)c(Cl)c3)nc(N3C[C@H](NC)C[C@H](NC)C3)n2)C1 | – | 5 | – |
| NC[C@@H]1CN(c2nc(Nc3ccc(NC(=O)c4ccc5ccccc5c4O)cc3)nc(N3C[C@H](N)C[C@H](N)C3)n2)CC[C@@H]1O | 16 (≈ 26.7 µM) | 21 | – |
| N[C@@H]1C[C@H](N)CN(c2nc(Nc3ccc(NC(=O)c4ccc5ccccc5c4O)cc3)nc(N3C[C@@H](N)C[C@@H](O)C3)n2)C1 | 8 (≈ 13.7 µM) | 17 | – |
| NC[C@H]1[C@@H](O)CCN1c1nc(Nc2ccc(NC(=O)c3ccc(Cl)cc3)c(O)c2)nc(N2C[C@H](N)C[C@H](N)C2)n1 | 32 (≈ 56.2 µM) | 19 | – |
| Cc1ccc(S(=O)(=O)N(Cc2ccccc2)c2ccc(Nc3nc(N4CCCC(O)C4)nc(N4C[C@H](N)C[C@H](N)C4)n3)cc2O)cc1 (some centres undefined) | 8 (≈ 12.1 µM) | 44 | – |
| Cc1ccc(S(=O)(=O)N(Cc2ccccc2)c2ccc(Nc3nc(N4CC(N)C4)nc(N4C[C@H](N)C[C@H](N)C4)n3)cc2O)cc1 | 160 (≈ 254 µM) | 11 | – |
| Cc1ccc(S(=O)(=O)N(Cc2ccccc2)c2ccc(Nc3nc(N4C[C@H](N)C[C@H](N)C4)nc(N4C[C@@H](N)C[C@@H](O)C4)n3)cc2O)cc1 | 16 (≈ 23.7 µM) | 17 | – |
| Cc1ccc(S(=O)(=O)N(Cc2ccccc2)c2ccc(Nc3nc(N4C[C@H](N)C[C@H](N)C4)nc(N4C[C@@H](O)[C@@H](O)C4)n3)cc2O)cc1 | 32 (≈ 48.4 µM) | 43 | – |
| Cc1ccc(S(=O)(=O)N(Cc2ccccc2)c2ccc(Nc3nc(N4CCC(C(N)=O)CC4)nc(N4C[C@H](N)C[C@H](N)C4)n3)cc2O)cc1 | – | > 1000 | – |
| N[C@@H]1C[C@H](N)CN(c2nc(Nc3ccc(NC(=O)c4ccc(Cl)cc4)c(O)c3)nc(N3C[C@@H](N)C[C@H]3CO)n2)C1 | 32 (≈ 56.2 µM) | 13 | – |
| NC1CCN(c2nc(Nc3ccc(Cl)c(Cl)c3)nc(N3CCC(N)CC3)n2)CC1 | – | 800 | – |
| Cc1ccc(S(=O)(=O)N(Cc2ccccc2)c2ccc(Nc3nc(N4C[C@H](N)C[C@H](N)C4)nc(N4CC[C@H](O)[C@H](CN)C4)n3)cc2O)cc1 | 16 (≈ 23.2 µM) | 27 | – |
| N[C@@H]1C[C@H](N)CN(c2nc(Nc3ccc(NC(=O)c4ccc5ccccc5c4O)cc3)nc(N3C[C@H](N)C[C@H](N)C3)n2)C1 | – | 7 | – |
| NC[C@H]1[C@@H](O)CCN1c1nc(Nc2ccc(NC(=O)c3ccc4ccccc4c3O)cc2)nc(N2C[C@H](N)C[C@H](N)C2)n1 | 16 (≈ 27.4 µM) | 10 | – |
| CN[C@@H]1C[C@H](NC)CN(c2nc(Nc3ccc(NC(=O)c4ccc5ccccc5c4O)cc3)nc(N3C[C@H](N)C[C@H](N)C3)n2)C1 | 8 (≈ 13.1 µM) | 8 | – |
| Cc1ccc(S(=O)(=O)N(Cc2ccccc2)c2ccc(Nc3nc(N(CCN)CCN)nc(N4C[C@H](N)C[C@H](N)C4)n3)cc2O)cc1 | 8 (≈ 12.1 µM) | 1 | – |
| N[C@@H]1C[C@H](N)CN(c2nc(Nc3ccc(Cl)c(Cl)c3)nc(N3C[C@H](N)C[C@H](N)C3)n2)C1 | – | 10 | – |
| Cc1ccc(S(=O)(=O)N(Cc2ccccc2)c2ccc(Nc3nc(N4C[C@H](N)C[C@H](N)C4)nc(N4C[C@H](CN)C[C@H](CN)C4)n3)cc2O)cc1 | 8 (≈ 11.4 µM) | 1 | – |
| NC[C@@H]1C[C@H](N)CN1c1nc(Nc2ccc(NC(=O)c3ccc4ccccc4c3O)cc2)nc(N2C[C@H](N)C[C@@H]2CN)n1 | – | 8 | – |
| N[C@@H]1C[C@H](N)CN(c2nc(Nc3ccc(NC(=O)c4ccc(Cl)cc4)c(O)c3)nc(N3C[C@H](N)C[C@H](N)C3)n2)C1 | 16 (≈ 28.2 µM) | – | 8 (≈ 14.1 µM) |
| NCCN(CCN)c1nc(Nc2ccc(NC(=O)c3ccc4ccccc4c3O)cc2)nc(N2C[C@H](N)C[C@H](N)C2)n1 | 8 (≈ 14 µM) | 10 | – |
| Cc1ccc(S(=O)(=O)N(Cc2ccccc2)c2ccc(Nc3nc(N4C[C@H](N)C[C@H](N)C4)nc(N4CC[C@H](O)[C@@H]4CN)n3)cc2O)cc1 | 8 (≈ 11.9 µM) | 21 | – |
| N[C@@H]1C[C@H](N)CN(c2nc(Nc3ccc(NC(=O)c4ccc(Cl)cc4)c(O)c3)nc(N3C[C@@H](N)[C@@H](N)C3)n2)C1 | 16 (≈ 28.9 µM) | 58 | – |
| N[C@@H]1C[C@H](N)CN(c2nc(Nc3ccc(NC(=O)c4ccc5ccccc5c4O)cc3)nc(N3C[C@@H](O)[C@@H](O)C3)n2)C1 | 32 (≈ 56 µM) | 72 | – |
| NC1CCCN(c2nc(Nc3ccc(Cl)c(Cl)c3)nc(N3CCCC(N)C3)n2)C1 (centres undefined) | – | > 1000 | – |
